Laboratory results published in patent publication US7713969B2, “Compositions and methods for treatment of cancer” (ArQule, Inc., priority 2005, dated 2010).

Legend:
[1] = test system: MDA-MB-231 human breast cancer xenograft; assay: MDA-MB-231 xenograft, intraperitoneal 80 mg/kg (Example 82); type: in vivo, mice; conditions: 80 mg/kg intraperitoneally, 5 days on/2 off, four cycles, DMA/PEG 400
Method: Athymic female nude mice (CRL:NU/NU-nuBR) were injected subcutaneously in the flank with MDA-MB-231 human breast cancer cells (8×10^6 cells/mouse). Prior to injection, MDA-MB-231 cells were cultured in DMEM (Invitrogen #11965-092) supplemented with 10% (v/v) heat inactivated fetal bovine serum (FBS), 1% Hepes buffer solution (Invitrogen #15630-080) and 1% Penicillin/Streptomycin (Invitrogen #15140-122) at 37° C. in 5% CO2. Tumors were allowed to grow to approximately 50 mm^3 in size. Animals were randomized into three groups of eight animals per group. At day four post injection, mice with established tumors were treated intraperitoneally with (±)-Cis-3-(5,6-dihydro-4H-pyrrolo[3,2,1-ij]quinolin-1yl)-4(1H-indol-3-yl)pyrrolidine-2,5-dione (80 mg/kg), (±)-Trans-3-(5,6-dihydro-4H-pyrrolo[3,2,1-ij]quinolin-1-yl)-4(1H-indol-3-yl)pyrrolidine-2,5-dione (80 mg/kg) administered in DMA/PEG 400 (1:4 v/v) as the vehicle at 50 mg/ml, or vehicle control intraperitoneally. […] Tumor size was evaluated periodically during the study. For each subject, tumor volume was calculated using the formula (L×W^2)/2 where L and W were the length and width of the tumor, respectively. The arithmetic mean tumor volume was calculated for each treatment group+/−standard error of the mean (SEM). […]

NCI-H446 = assay: Cell viability MTS assay; type: cell-based, human; conditions: Homo sapiens, NCI-H446, 72 hours with compound
Method in brief: (§1)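 Cells seeded 16-24 h, then exposed to serially diluted compound for 72 h (0.33% DMSO final) at 37° C, 5% CO2. Viability read by MTS/PMS reduction over 4 h, absorbance at 490 nm. IC50 is the concentration giving 50% fewer viable cells than DMSO controls, by non-linear regression.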

NCI-H69 = assay: Cell viability MTS assay; type: cell-based, human; conditions: Homo sapiens, NCI-H69, 72 hours with compound
Method in brief: as §1

NCI-H82 = assay: Cell viability MTS assay; type: cell-based, human; conditions: Homo sapiens, NCI-H82, 72 hours with compound
Method in brief: as §1

MDA-MB-231 cells [2] = assay: Colony counting, surviving fraction (Example 78); type: cell-based, human; conditions: Homo sapiens, MDA-MB-231; two days incubation, colonies counted two weeks later; read-out: IC50 (surviving fraction equaled 50)
Method: MDA-MB-231 cells (ATCC# HTB-26), grown in DMEM plus 15% heat inactivated fetal bovine serum plus 10 mM HEPES pH 7.5, were plated in 60 mm plates (2×10^5 cells per plate). After two days candidate compounds in DMSO at various concentrations were diluted in media and added to individual plates such that the final DMSO concentration in the cell culture media was 0.1%. After two days incubation the culture was trypsinized, cells were washed with media, counted using a hemocytometer and 500 cells, including cell bodies, were plated in […] in media. Two weeks later the media was removed and the cell colonies were fixed with methanol for 10 minutes, stained with 1% crystal violet 10 minutes, washed with water and air dried. Cell colonies were visually counted when there were greater then 50 cells present per colony. Plating efficiency was defined as the average number of colonies formed divided by 500. The surviving fraction was defined as the plating efficiency of a candidate compound divided by the plating efficiency of DMSO multiplied by 100. For candidate compound titrations, the IC50 concentration was determined by fitting the equation y=AeBx to the data points and extrapolating the concentration where surviving fraction equaled 50. […]

MDA-MB-231 cells [3] = assay: Cancer cell invasion assay with inserts (Example 85); type: cell-based; conditions: Homo sapiens, 24 hours pretreatment, 24 hours invasion, read-out: estimated IC50, invasive phenotype
Method: MDA-MB-231 cells were pretreated with indicated concentrations of (−)-trans-3-(5,6-dihydro-4H-pyrrolo[3,2,1-ij]quinolin-1-yl)-4(1H-indol-3-yl)pyrrolidine-2,5-dione for 24 hours. 300 μl of each cell suspension (at a concentration 0.5×10^6 cells/mL in serum free medium) was placed in individual inserts and incubated for 24 hours at 37° C. The bottom wells housing the inserts contained 500 μl of 10% FBS medium. […] Each insert was then transferred to a clean well containing cell stain solution and incubated for 10 minutes at room temperature. The bottom of the insert was destained by incubating in extraction solution and OD was measured at 560 nm. (−)-trans-3-(5,6-dihydro-4H-pyrrolo[3,2,1-ij]quinolin-1-yl)-4(1H-indol-3-yl) pyrrolidine-2,5-dione inhibited the migration across interstices in confluent cultures of MDA-MB-231 cancer cells. The data represent the mean of two independent experiments. (See FIG. 9)

| IC50 (NCI-H446) [µM] | IC50 (NCI-H69) [µM] | IC50 (NCI-H82) [µM] | IC50 (MDA-MB-231 cells [3]) [µM] | Structure (SMILES) | reduction of mean tumor volume compared to vehicle treated control [1] [%] | IC50 (MDA-MB-231 cells [2]) [µM] |
| --- | --- | --- | --- | --- | --- | --- |
| – | – | – | – | O=C1NC(=O)[C@@H](c2cn3c4c(cccc24)CCC3)[C@@H]1c1c[nH]c2ccccc12 (racemic) [(±)-Trans-3-(5,6-dihydro-4H-pyrrolo[3,2,1-ij]quinolin-1-yl)-4(1H-indol-3-yl)pyrrolidine-2,5-dione] | 69.4 | – |
| 0.581 | 1.04 | 0.828 | ~0.5 | O=C1NC(=O)C(c2cn3c4c(cccc24)CCC3)C1c1c[nH]c2ccccc12 (single isomer, unassigned; (-)) | – | 0.62 |
